The text below walks through data of patent US7605168B2 (Plexxikon, Inc., priority 2004, dated 2009).

For assay [1], the target named is T1, PDE4D: catalytic domain S316-V692 (Homo sapiens, UniProt Q08499).
T1 construct: pET15S PDE4D S316-V692-X; His6 (N, cleaved yes); thrombin cleavage site (N, cleaved yes); made in house; host or cells: E. coli BL21 (DE3) RIL
The experiment in a line: PDE4 IC50 determination by Scintillation Proximity Assay (SPA), PDE4D catalytic domain. The format is biochemical. To be noted: [3H]cAMP SPA, 30 min at 30° C. As for the experimental part:
IC50s were determined by Scintillation Proximity Assay (SPA). The principle of the assay is based on the fact that cAMP, the PDE4 substrate, binds weakly to Yittrium Silicate SPA beads, whereas AMP, the product of PDE4 hydrolysis binds strongly. Thus, the extent of PDE4 hydrolysis of a sample of [^3H]cAMP can be measured because only the [^3H]AMP produced by PDE4 hydrolysis will bind to the SPA beads and produce a scintillation signal.
[…] Enzyme was stored in 50% glycerol at −20°. See Example 144.
Compounds tested (see Tables 5 for compounds and results) were 3-fold serially diluted 11 times in DMSO from a starting concentration of 4 mM or 40 μM, depending on compound potency. 1 μl of each dilution was transferred into duplicate wells of a white polystyrene 384-well assay plate (Corning #3710). In addition to the compound dilutions, each assay plate contained control wells with 1 μl of DMSO (to define 0% enzyme inhibition) or 1 μl of 200 μM roflumilast (to define 100% enzyme inhibition). Using a Beckman FX robot, 10 μl of [^3H] cAMP (Amersham TRK559) at […] in assay buffer (50 mM Tris, pH 7.5; 8.3 mM MgCl; 1.7 mM EGTA; 0.01% BSA) was transferred to each assay well. Next, 10 μl of PDE4 enzyme in assay buffer was added and the plates were shaken for 30 s. at 1000 rpm to start the cAMP hydrolysis reaction. The concentrations of enzyme used were: PDE4B, 80 ng/ml; PDE4D, 4 ng/ml; PDE4B2, 2.5 μl of 50% glycerol stock/ml; PDE4D5 0.083 μl of 50% glycerol stock/ml. Assay plates were covered and incubated for 30 min. at 30° C. Reactions were stopped by robotic addition of 10 μl of 5 mg/ml SPA beads (Amersham RPNQ0013) in 18 mM ZnSO4. The assay plates were covered with clear plastic film, centrifuged for 1 min. at 1000 RPM to settle the SPA beads, and counted using a Wallac TriLux scintillation counter. IC50's were calculated from the raw assay data by non-linear regression curve fitting using the Assay Explorer software package from MDL.
For orientation: SPA uses beads or plates that emit light when radiolabelled molecules are held near them.

Assay [2] concerns the target T2, PDE4B2: full-length human PDE4B2 isozyme (Homo sapiens, UniProt Q07343).
T2 construct: made in house; host or cells: baculovirus infected insect cells (pFastBacHT)
The experiment in a line: PDE4 IC50 determination by Scintillation Proximity Assay (SPA), full-length PDE4B2. In kind it is biochemical. The settings on record: cell lysate, [3H]cAMP SPA. Put shortly: (§1)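 Unpurified enzyme from cell lysates (PDE4B2 2.5 μl, PDE4D5 0.083 μl of 50% glycerol stock/ml) hydrolysing [3H]cAMP in 50 mM Tris pH 7.5, 8.3 mM MgCl, 1.7 mM EGTA, 0.01% BSA, 30 min at 30 °C. Stopped with yttrium silicate SPA beads in 18 mM ZnSO4; bead-bound [3H]AMP counted. IC50 by non-linear regression.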

The target of assay [3] is T3, PDE4D5: full-length human PDE4D5 isozyme (Homo sapiens, UniProt Q08499).
T3 construct: made in house; host or cells: baculovirus infected insect cells (pFastBacHT)
T3 sequence (Q08499 with tags, fused parts or gaps isoform Q08499-6): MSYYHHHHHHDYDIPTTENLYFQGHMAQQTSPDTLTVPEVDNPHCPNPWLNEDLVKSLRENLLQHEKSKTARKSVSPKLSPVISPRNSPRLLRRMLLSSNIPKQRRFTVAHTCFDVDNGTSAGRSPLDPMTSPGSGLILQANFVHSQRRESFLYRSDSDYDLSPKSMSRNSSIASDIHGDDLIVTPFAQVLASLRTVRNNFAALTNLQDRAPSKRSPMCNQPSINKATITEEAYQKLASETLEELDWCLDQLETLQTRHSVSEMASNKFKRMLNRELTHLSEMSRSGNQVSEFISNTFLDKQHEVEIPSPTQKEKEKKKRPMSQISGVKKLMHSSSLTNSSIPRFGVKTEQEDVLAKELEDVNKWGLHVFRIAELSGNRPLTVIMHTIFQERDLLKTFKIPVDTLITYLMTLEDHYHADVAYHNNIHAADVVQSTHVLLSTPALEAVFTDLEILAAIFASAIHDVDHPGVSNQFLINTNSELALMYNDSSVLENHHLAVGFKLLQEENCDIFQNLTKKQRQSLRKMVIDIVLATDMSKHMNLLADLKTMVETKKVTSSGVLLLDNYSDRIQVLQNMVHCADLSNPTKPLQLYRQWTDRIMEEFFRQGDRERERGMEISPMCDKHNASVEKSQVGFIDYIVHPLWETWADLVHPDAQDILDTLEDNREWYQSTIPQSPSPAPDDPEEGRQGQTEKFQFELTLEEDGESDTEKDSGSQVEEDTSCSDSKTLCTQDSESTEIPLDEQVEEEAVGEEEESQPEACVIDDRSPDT
The experiment in a line: PDE4 IC50 determination by Scintillation Proximity Assay (SPA), full-length PDE4D5. The format is biochemical. The settings on record: cell lysate, [3H]cAMP SPA. Summed up:
as §1

The test system of assay [4] is TNF-α release from whole blood cultures stimulated with LPS. Kind of assay: IC50 by TNF alpha production upon stimulation of whole blood cultures with LPS. In kind it is cell-based. The settings on record: human whole blood (buffy coat) culture, 100 ng/ml LPS, 4 hours; read-out: h TNFα IC50. Summed up: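 Human buffy coat, diluted with 7 volumes of RPMI/2.5% heat-inactivated FBS, was preincubated with compound (8-point 1:3 series) for 1 h at 37 °C. It was then stimulated with 100 ng/ml LPS (final) for 4 h. Supernatant TNF-α was measured by sandwich ELISA at 450 nm, and IC50 was set between DMSO (0%) and PDE4-inhibitor (100%) controls.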

For assay [5], the target named is T4, PDE4B: catalytic domain of human PDE4B from S152-S528 (Homo sapiens, UniProt Q07343).
T4 construct: The catalytic domain of human PDE4B from S152-S528; His6 (N, cleaved yes); thrombin cleavage site (N, cleaved yes); made in house; host or cells: E. coli BL21 (DE3) RIL
T4 sequence (Q07343 324-700): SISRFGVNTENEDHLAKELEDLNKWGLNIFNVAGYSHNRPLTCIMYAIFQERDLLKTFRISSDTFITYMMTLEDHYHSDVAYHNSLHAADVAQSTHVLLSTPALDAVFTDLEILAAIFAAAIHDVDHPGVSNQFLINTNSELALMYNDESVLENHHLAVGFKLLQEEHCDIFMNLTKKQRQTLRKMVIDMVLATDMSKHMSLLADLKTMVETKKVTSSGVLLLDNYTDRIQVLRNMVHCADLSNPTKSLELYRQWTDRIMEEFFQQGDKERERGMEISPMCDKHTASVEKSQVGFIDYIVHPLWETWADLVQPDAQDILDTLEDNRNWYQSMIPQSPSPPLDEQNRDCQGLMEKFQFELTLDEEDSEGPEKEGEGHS
The experiment in a line: PDE4 IC50 determination by Scintillation Proximity Assay (SPA), PDE4B catalytic domain. In kind it is biochemical. The settings on record: [3H]cAMP SPA, 30 min at 30° C. Summed up: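 Human PDE4B catalytic domain (80 ng/ml) hydrolysed [3H]cAMP in 50 mM Tris pH 7.5, 8.3 mM MgCl, 1.7 mM EGTA, 0.01% BSA for 30 min at 30 °C. Reaction was stopped with yttrium silicate SPA beads in 18 mM ZnSO4, and bound [3H]AMP was counted by scintillation. IC50 came from non-linear regression.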

A word on the IC50: it is the concentration that inhibits the measured activity by half.

Structures are written as SMILES.

T2 sequence (Q07343 with tags, fused parts or gaps isoform Q07343-2): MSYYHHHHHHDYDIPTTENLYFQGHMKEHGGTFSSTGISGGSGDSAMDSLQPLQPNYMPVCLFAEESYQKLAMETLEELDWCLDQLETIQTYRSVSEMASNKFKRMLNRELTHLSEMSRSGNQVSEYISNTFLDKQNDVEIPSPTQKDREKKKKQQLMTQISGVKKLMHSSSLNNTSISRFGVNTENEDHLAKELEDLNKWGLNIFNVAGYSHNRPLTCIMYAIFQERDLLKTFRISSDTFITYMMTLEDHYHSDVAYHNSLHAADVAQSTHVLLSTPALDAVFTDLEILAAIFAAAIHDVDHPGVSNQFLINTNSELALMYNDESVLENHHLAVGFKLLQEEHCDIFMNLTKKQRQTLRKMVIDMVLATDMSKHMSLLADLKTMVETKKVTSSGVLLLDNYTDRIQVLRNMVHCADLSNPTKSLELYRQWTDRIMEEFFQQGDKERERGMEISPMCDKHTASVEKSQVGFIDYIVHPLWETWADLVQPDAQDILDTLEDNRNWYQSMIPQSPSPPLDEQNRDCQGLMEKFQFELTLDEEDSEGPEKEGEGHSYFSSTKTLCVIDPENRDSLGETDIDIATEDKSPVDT
T1 sequence (Q08499 380-756): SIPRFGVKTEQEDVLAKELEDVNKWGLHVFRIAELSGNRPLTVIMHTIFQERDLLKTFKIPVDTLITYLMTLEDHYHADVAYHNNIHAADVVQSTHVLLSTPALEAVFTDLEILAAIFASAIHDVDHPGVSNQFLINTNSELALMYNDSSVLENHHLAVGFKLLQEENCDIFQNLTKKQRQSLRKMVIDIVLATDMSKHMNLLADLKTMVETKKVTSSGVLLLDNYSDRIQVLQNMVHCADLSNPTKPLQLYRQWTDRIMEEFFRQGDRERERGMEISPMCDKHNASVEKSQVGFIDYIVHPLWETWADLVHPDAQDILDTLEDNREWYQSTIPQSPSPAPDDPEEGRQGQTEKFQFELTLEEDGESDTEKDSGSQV

With `COc1ccc(-c2c[nH]c3ncccc23)cc1OC1CCCC1` [Compound 88, 3-(3-Cyclopentyloxy-4-methoxy-phenyl)-1H-pyrrolo[2,3-b]pyridine], the IC50 is at most 10 µM in assay [1]; under 10 µM in assay [2]; under 10 µM in assay [3]; at most 10 µM in assay [4]; under 10 µM in assay [5].
With `COc1ccc(-c2cn(S(=O)(=O)c3cccc4cc(C)cnc34)c3ccc(Cl)cc23)cc1OC` [Compound 96, 8-[5-Chloro-3-(3,4-Dimethoxy-phenyl)-indole-1-sulfonyl]-3-methyl-quinoline], the IC50 was at most 10 µM in assay [1]; under 10 µM in assay [2]; under 10 µM in assay [3]; at most 10 µM in assay [4]; under 10 µM in assay [5].
As to `COc1ccc(-c2cn(S(=O)(=O)c3ccc(-c4ccncc4C)cc3)c3ncccc23)cc1OC` [Compound 69, 3-(3,4-Dimethoxy-phenyl)-1-[4-(3-methyl-pyridin-4-yl)-benzenesulfonyl]-1H-pyrrolo[2,3-b]pyridine], the IC50 is at most 10 µM in assay [1]; under 10 µM in assay [2]; under 10 µM in assay [3]; at most 10 µM in assay [4]; under 10 µM in assay [5].
On to `COc1ccc(-c2ccnc3[nH]ccc23)cc1OC` [Compound 50, 4-(3,4-Dimethoxy-phenyl)-1H-pyrrolo[2,3-b]pyridine], for which the 50% inhibitory concentration (IC50) in assay [1] was at most 10 µM; in assay [2], under 10 µM; in assay [3] it was under 10 µM; in assay [4], at most 10 µM; in assay [5], under 10 µM.
`COc1ccc(-c2cn(S(=O)(=O)c3ccccc3)c3ncccc23)cc1OC` [Compound 5, 1-benzenesulfonyl-3-(3,4-dimethoxy-phenyl)-1H-pyrrolo[2,3-b]pyridine]: the concentration for half-maximal inhibition (IC50) in assay [1] was at most 10 µM; in assay [2] it was under 10 µM; in assay [3] it was under 10 µM; in assay [4], at most 10 µM; in assay [5], under 10 µM.
Consider `COc1ccc(-c2cn(C(=O)c3ccc4c(OC(C)=O)cccc4c3)c3ncccc23)cc1OC` [Compound 62, Acetic acid 6-[3-(3,4-dimethoxy-phenyl)-pyrrolo[2,3-b]pyridine-1-carbonyl]-naphthalen-1-yl ester-amide], for which the IC50 is at most 10 µM in assay [1]; under 10 µM in assay [2]; under 10 µM in assay [3]; at most 10 µM in assay [4]; under 10 µM in assay [5].
As to `COc1cccc(NC(=S)n2cc(-c3ccc(OC)c(OC)c3)c3cccnc32)c1` [Compound 42, 3-(3,4-dimethoxy-phenyl)-pyrrolo[2,3-b]pyridine-1-carbothioic acid (3-methoxy-phenyl)-amide], the IC50 in assay [1] was at most 10 µM; in assay [2] it was under 10 µM; in assay [3], under 10 µM; in assay [4] it was over 10 µM; in assay [5] it was under 10 µM.
On to `COc1ccc(-c2c[nH]c3ncccc23)cc1OC` [Compound 1, 3-(3,4-dimethoxy-phenyl)-1H-pyrrolo[2,3-b]pyridine], for which the IC50 was at most 10 µM in assay [1]; under 10 µM in assay [2]; under 10 µM in assay [3]; at most 10 µM in assay [4]; under 10 µM in assay [5].
Turning to `COc1cccc(NC(=O)n2cc(-c3ccc(OC)c(OC)c3)c3cccnc32)c1` [Compound 32, 3-(3,4-Dimethoxy-phenyl)-pyrrolo[2,3-b]pyridine-1-carboxylic acid (3-methoxy-phenyl)-amide], the concentration for half-maximal inhibition (IC50) was at most 10 µM in assay [1]; under 10 µM in assay [2]; under 10 µM in assay [3]; over 10 µM in assay [4]; under 10 µM in assay [5].
In the case of `COc1ccc(-c2cn(C(=O)c3ccc(F)c4ccccc34)c3ncccc23)cc1OC` [Compound 64, [3-(3,4-Dimethoxy-phenyl)-pyrrolo[2,3-b]pyridin-1-yl]-(4-fluoro-naphthalen-1-yl)-methanone], the 50% inhibitory concentration (IC50) was at most 10 µM in assay [1]; under 10 µM in assay [2]; under 10 µM in assay [3]; at most 10 µM in assay [4]; under 10 µM in assay [5].
Consider `COc1ccc(-c2cn(S(=O)(=O)c3ccccc3)c3ncccc23)cc1OCc1ccccc1` [Compound 103, 1-Benzenesulfonyl-3-(3-benzyloxy-4-methoxy-phenyl)-1H-pyrrolo[2,3-b]pyridine], for which the concentration for half-maximal inhibition (IC50) in assay [1] is at most 10 µM; in assay [2] it was under 10 µM; in assay [3], under 10 µM; in assay [5] it was under 10 µM.
In the case of `CCCOc1ccccc1C(=O)n1cc(-c2ccc(OC)c(OC)c2)c2cccnc21` [Compound 113, [3-(3,4-Dimethoxy-phenyl)-pyrrolo[2,3-b]pyridin-1-yl]-(2-propoxy-phenyl)-methanone], the IC50 in assay [1] is at most 10 µM; in assay [2], under 10 µM; in assay [3], under 10 µM; in assay [4], at most 10 µM; in assay [5], under 10 µM.
Take `COc1ccc(-c2cn(S(=O)(=O)Cc3cccc([N+](=O)[O-])c3)c3ncccc23)cc1OC` [Compound 18, 3-(3,4-dimethoxy-phenyl)-1-(3-nitro-phenylmethanesulfonyl)-1H-pyrrolo[2,3-b]pyridine]: the concentration for half-maximal inhibition (IC50) in assay [1] was at most 10 µM; in assay [2], under 10 µM; in assay [3], under 10 µM; in assay [4] it was at most 10 µM; in assay [5] it was under 10 µM.
For the molecule `COc1ccc(-c2cn(C(=O)Nc3ccc(F)c([N+](=O)[O-])c3)c3ncccc23)cc1OC` [Compound 31, 3-(3,4-Dimethoxy-phenyl)-pyrrolo[2,3-b]pyridine-1-carboxylic acid (4-fluoro-3-nitro-phenyl)-amide], the IC50 is at most 10 µM in assay [1]; under 10 µM in assay [2]; under 10 µM in assay [3]; at most 10 µM in assay [4]; under 10 µM in assay [5].
With `COc1ccc(-c2cn(C(=O)c3csc4ccccc34)c3ncccc23)cc1OC` [Compound 63, Benzo[b]thiophen-3-yl-[3-(3,4-dimethoxy-phenyl)-pyrrolo[2,3-b]pyridin-1-yl]-methanone], the IC50 in assay [1] is at most 10 µM; in assay [2], under 10 µM; in assay [3], under 10 µM; in assay [4] it was at most 10 µM; in assay [5], under 10 µM.
Take `COc1ccc(-c2cn(C(=O)c3ccc(N(C)C)c4ccccc34)c3ncccc23)cc1OC` [Compound 109, [3-(3,4-Dimethoxy-phenyl)-pyrrolo[2,3-b]pyridin-1-yl]-(4-dimethylamino-naphthalen-1-yl)-methanone]: the IC50 in assay [1] is at most 10 µM; in assay [2], under 10 µM; in assay [3], under 10 µM; in assay [4] it was at most 10 µM; in assay [5], under 10 µM.
Consider `COc1ccc(-c2cn(C(=O)Nc3ccccc3)c3ncccc23)cc1OC` [Compound 28, 3-(3,4-Dimethoxy-phenyl)-pyrrolo[2,3-b]pyridine-1-carboxylic acid phenylamide], for which the IC50 in assay [1] was at most 10 µM; in assay [2], under 10 µM; in assay [3], under 10 µM; in assay [5], under 10 µM.
